The values that follow come from patent publication US20110092465A1, “MONOMERIC PYROPHOSPHATE COMPLEXES AND METHODS OF TREATMENT USING THE COMPLEXES” (SYRACUSE UNIVERSITY, priority 2009, published 2011).

Where two headings read alike, the source gives them in different places.

By IC50 is commonly meant the midpoint of a concentration-inhibition curve.

For one series, the system named is A2780/AD cell line. Format: cell-based, human. On the procedure:
Cisplatin was used as a control and for comparative purposes. The IC50 values (μM) are for compounds 1-4 in A2780/AD cell line. Cisplatin controls and dimeric complexes previously reported are also shown for comparison:
Experimental details for the in-vitro cell testing of compounds [Co(phen)2(H2P2O7)].4H2O (1.4H2O), [Ni(phen)2(H2P2O7)].8H2O (2.8H2O) and [Cu(phen)(H2O)(H2P2O7)]. For in vitro cell studies, all experiments were performed in a Labconco Purifier I laminar flow hood that had been disinfected with 70% ethanol and irradiated with UV light. The A2780/AD cell line that was used for testing was provided by the Fox Chase Cancer Center, Philadelphia (USA). Fetal bovine serum (FBS) was purchased from Hyclone. Penicillin-streptomycin solution with 10,000 units penicillin and 10 mg/mL streptomycin in 0.9% NaCl was obtained from Sigma. Gibco RPMI 1640 growth media that contained L-glutamine and phenol red was supplied by Invitrogen. Cellgro Cellstripper, a non-enzymatic cell dissociation solution, was obtained from Mediatech. Growth media were filtered with 0.22 μm filter (VWR). Cell Counting Kit 8 (CCK8) was purchased from Dojindo. Cells were incubated and grown in an incubator that was purchased from VWR. Optical densities of the cell cultures were measured at 450 nm with Thermo Multiskan EX that was equipped with Ascent software version 2.6.
Cell lines and culture conditions. The A2780/AD cell line was cultured in BD Falcon 25 cm^2 surface area, canted neck flaks with vented cap (VWR) containing RPMI media supplemented with 10% FBS and 10% Penicillin-Streptomycin solution by volume. Subcultures were generated by incubating the cells with Cellstripper, and passing cells at a 1:10 culture ratio.
Drug cytotoxicity. Cells used for studies were diluted to make either a solution of 50,000 cells/mL, used for the 72 h studies, or 80,000 cells/mL, used for the 6 and 24 h studies. 100 μL of the cell solution was added to the wells of a 96 well plate, and the cells were allowed to adhere overnight. The media was then removed from the 96 well plates and replaced with either 100 μL (for 6 h studies) or 200 μL (for 24 and 72 h studies) of media containing drug. Drug solutions were prepared by dissolving the drug in media (compounds 2, 4) or in a 25% methanol solution (compounds 1, 3). The solutions were filter sterilized and serially diluted 1:10. The concentration of methanol was kept below 5% for all concentrations studied. Cisplatin was prepared by dissolving in PBS and sonicating for 1 h to create a final concentration of 0.5 mg/mL (1.66 mM). Each drug was tested over 9 concentrations in triplicate with each point in done in triplicate. After the incubation period, the drug containing media was removed and replaced with 100 μL of media containing 10% CCK-8 solution by volume. The plates were incubated until the control reached 0.8-1.2 absorbance at 450 nm (2, 1.5 and 0.5 h for the 6, 24, 72 h runs respectively). The absorbance was measured at 450 nm via a plate reader. A blank was subtracted from all wells, and the results were plotted as a percentage compared to the control vs. concentration of drug. IC50 values were calculated by fitting the data using Prism Graphpad 5 using a nonlinear, dose response curve with a 4 variable fit. The reported ICso values are an average of at least 3 runs reported with standard deviation.

Series [1] deals with adriamycin-resistant human ovarian cancer cell line (A2780/AD). The series can be described thus: Proliferation colorimetric assay (WSK-8) of compounds 11-13 in A2780/AD. The series is classed as cell-based. As to conditions: for toxicity in words: 24 and 72 h. The method, then:
Compounds 11, 12, and 13 were tested against the adriamycin-resistant human ovarian cancer cell line (A2780/AD) over a time period of 24 and 72 h (Table 8 below). Cisplatin was used as an external control. Adriamycin resistant ovarian cancer cell line (A2780/AD) were cultured as adherent monolayers in RPMI 1640 (Invitrogen) growth media containing L-glutamine and folic acid supplemented with 10,000 units penicillin, 10 mg/ml streptomycin (Sigma) and 10% (v/v) fetal bovine serum (Sigma). Cells were incubated and grown in a VWR mammalian incubator at 5% CO2 and 95% humidity. All preparations for cell culture and assays were conducted in a sterile environment under a Labconco Purifier I Laminar flow hood. Cells were cultured in Millipore 250 mL culture bottles with vented lids.
The proliferation of the exponential phase cultures of A2780/AD were assessed by colorimetric assay. WSK-8 (Dojindo) was performed according to manufacturer's instruction. Adherent cell cultures were harvested by stripping of culture flask by a non-enzymatic cell stripper (Mediatech) after a 30 minute incubation period. The cells were then collected. The cell density was adjusted with the addition of RPMI 1640 media to 80,000 cells/mL for exponential growth for the period of drug exposure. To each well, aliquots of 100 μL were inoculated resulting in 8,000 cells per well. After a 24 h incubation time to facilitate adherence, the media was removed and replaced with 200 μl of fresh media containing different concentrations of compounds 11, 12, and 13. The cells were then incubated for 24 and 72 h. Optical densities were measured at 450 nm using a plate reader. The percentage of cell viability was determined relative to untreated control microcultures. The IC50 concentrations were calculated based on a sigmoidal (doseresponse) fit using OriginLabs 8 software with R^2 values ≧0.70 in all cases (average R^2 value 0.90). All experimental points were measured in triplicate and each experiment was performed at least three times on separate “batches” of synthesized compound. A2780/AD2O cells used were fewer than 12 passages for all testing.

The test system is the same in series [2]. As to conditions: dimeric complexes previously reported (Ref 3), cited from earlier work.
Where [3] appears, read: A2780/AD, 6 h exposure, read-out: IC50 6 h.
[4] abbreviates: A2780/AD, 24 h exposure, read-out: IC50 24 h.
Where [5] appears, read: A2780/AD, 72 h exposure, read-out: IC50 72 h.
The mark [6] stands for this setting: 24 h exposure, read-out: IC50 24 h.
Setting [7] is: 72 h exposure, read-out: IC50 72 h.

Take `O=P([O-])(O)OP(=O)([O-])O.[Co+2].c1cnc2c(c1)ccc1cccnc12.c1cnc2c(c1)ccc1cccnc12` [compound 1, [Co(phen)2(H2P2O7)].4H2O]: the IC50 is 0.03 to 0.08 µM with A2780/AD cell line, > 1000 µM in the series on A2780/AD cell line (setting [3]), 5 µM with A2780/AD cell line (setting [4]) and 0.03 ± 0.02 µM in the series with A2780/AD cell line (setting [5]). Moreover, the “cytotoxic activity in words” value in the series with A2780/AD cell line is “low nanomolar range”.

Take `O=P([O-])(O)OP(=O)([O-])O.[Ni+2].c1cnc2c(c1)ccc1cccnc12.c1cnc2c(c1)ccc1cccnc12` [compound 2, [Ni(phen)2(H2P2O7)].8H2O]: the “cytotoxic activity in words” value in the series on A2780/AD cell line is given as “little activity”. The IC50 with A2780/AD cell line (setting [3]) is > 1000 µM; in the series on A2780/AD cell line (setting [4]), > 1000 µM; in the series with A2780/AD cell line (setting [5]), 630 ± 390 µM. Further, the toxicity in words result in series [1] is on record as “low nanomolar inhibitory concentrations”.

Turning to `O.O=P([O-])(O)OP(=O)([O-])O.[Cu+2].c1cnc2c(c1)ccc1cccnc12` [compound 3, [Cu(phen)(H2O)(H2P2O7)]], the “cytotoxic activity in words” value with A2780/AD cell line is recorded as “low nanomolar range”. Further, the IC50 in the series with A2780/AD cell line (setting [3]) was 14 ± 6 µM; in the series on A2780/AD cell line (setting [4]), 0.7 µM; with A2780/AD cell line (setting [5]), 0.14 ± 0.05 µM; in series [1] (72 h, read-out: IC50 at 72 h), ~0.000162 µM.

In the case of `O.O.O.O.O.O.O.O.O.O.O.O.O.O.O.O=P([O-])([O-])OP(=O)([O-])[O-].[Cu+2].[Na+].[Na+].c1cnc2c(c1)ccc1cccnc12` [compound 4, {[Cu(phen)(H2O)(P2O7)] [Na2(H2O)8]}.6H2O], the IC50 was 0.03 to 0.08 µM in the series on A2780/AD cell line, 15 ± 6 µM in the series on A2780/AD cell line (setting [3]), 0.6 ± 0.6 µM in the series on A2780/AD cell line (setting [4]) and 0.08 ± 0.03 µM with A2780/AD cell line (setting [5]). In the series on A2780/AD cell line, the “cytotoxic activity in words” value is recorded as “low nanomolar range”.

With `O=P([O-])([O-])OP(=O)([O-])[O-].[Ni+2].[Ni+2].c1cnc2c(c1)ccc1cccnc12.c1cnc2c(c1)ccc1cccnc12.c1cnc2c(c1)ccc1cccnc12.c1cnc2c(c1)ccc1cccnc12` [compound 11, {[Ni(phen)2]2(μ-P2O7)}.27H2O], the toxicity in words entry in series [1] is given as “low toxicity”. For the same compound, the concentration for half-maximal inhibition (IC50) was 589 ± 31.6 µM in series [1] (setting [6]); 304 ± 40.9 µM in series [1] (setting [7]); 590 µM in series [2] (24 h, read-out: IC50 24 h); 304 µM in series [2] (72 h, read-out: IC50 72 h).

Consider `O.O.O.O.O.O.O.O.O.O.O=P([O-])([O-])OP(=O)([O-])[O-].[Cu+2].[Cu+2].c1cnc2c(c1)ccc1cccnc12.c1cnc2c(c1)ccc1cccnc12` [compound 12, {[Cu(phen)(H2O)]2(μ-P2O7)}.8H2O], for which the toxicity in words result in series [1] is listed as “significant toxicity”. Besides, the IC50 was 0.64 ± 0.12 µM in series [1] (setting [6]); 0.6 µM in series [2] (24 h, read-out: IC50 24 h); 0.0018 µM in series [2] (72 h, read-out: IC50 72 h).

`O=P([O-])([O-])OP(=O)([O-])[O-].[Co+2].[Co+2].c1cnc2c(c1)ccc1cccnc12.c1cnc2c(c1)ccc1cccnc12.c1cnc2c(c1)ccc1cccnc12.c1cnc2c(c1)ccc1cccnc12` [compound 13, {[Co(phen)2]2(μ-25 P2O7)}.6MeOH]: in series [1], the toxicity in words entry is listed as “significant toxicity”. Also, the 50% inhibitory concentration (IC50) in series [1] (setting [6]) is 2.01 ± 0.86 µM; in series [1] (72 h, read-out: IC50 at 72 h) it was 0.00016 µM; in series [2] (24 h, read-out: IC50 24 h), 2 µM; in series [2] (72 h, read-out: IC50 72 h), 0.00017 µM.

Take “cis-[Pt(NH3)2Cl2] [Cisplatin, reference compound]”: the IC50 is > 160 µM with A2780/AD cell line (setting [3]); 200 ± 16 µM in the series on A2780/AD cell line (setting [4]); 13 ± 5 µM with A2780/AD cell line (setting [5]); 84 ± 10.3 µM in series [1] (setting [6]); 11 ± 1.5 µM in series [1] (setting [7]).
